These results are taken from DBAASP.

By MIC is commonly meant the smallest concentration in the dilution series that meets the test's criterion for growth inhibition. Low values mean inhibition by little substance, high ones a need for much substance.

≈ marks a conversion by molar mass, not a printed value. Where “and” joins values, the source holds several entries; their conditions need not be identical. Equal values may be shown once.

What all share (test): ≥ marks a high value that may be exact or a test limit, other limits are often not marked, values filed in µg/mL are converted to µM
Assay [1] concerns Staphylococcus aureus ATCC 12600.
Assay [2] deals with Micrococcus luteus ATCC 49732.
Assay [3] deals with Escherichia coli ATCC 11775.
In assay [4] the test system is Candida albicans ATCC 14053.
Assay [5] has as its system Aspergillus niger.
The subject of assay [6] is Penicillium expansum.
Assay [7] relates to Salmonella enterica subsp. enterica serovar Typhimurium ATCC 14028.
The subject of assay [8] is Staphylococcus epidermidis.
Assay [9] concerns Escherichia coli K12 MG1655.
Assay [10] concerns Escherichia coli UTI89.
In assay [11] the test system is Escherichia coli ATCC 25922.
The test system of assay [12] is Candida albicans ATCC 90028.
Assay [13] concerns Cryptococcus neoformans ATCC 208821.
Assay [14] relates to Pseudomonas aeruginosa.
In assay [15] the test system is Bacillus subtilis ATCC 6051.
In assay [16] the test system is Klebsiella pneumoniae.
The subject of assay [17] is Klebsiella pneumoniae ATCC 13883.
In assay [18] the test system is Klebsiella pneumoniae ATCC BAA-2146.
Assay [19] deals with Acinetobacter baumannii ATCC 19606.
In assay [20] the test system is Pseudomonas aeruginosa ATCC 27853.
Assay [21] deals with Klebsiella pneumoniae ATCC 700603.
Assay [22] deals with Staphylococcus aureus ATCC 43300.
Assay [23] relates to Acinetobacter baumannii.
Assay [24] has as its system Candida parapsilosis CBS 604.
Assay [25] concerns Candida albicans ATCC 10231.
The subject of assay [26] is Candida krusei CBS 573.
In assay [27] the test system is Saccharomyces cerevisiae SZMC 0644.
Assay [28] relates to Candida krusei CGMCC 2.1857.
In assay [29] the test system is Candida albicans.
Assay [30] concerns Staphylococcus epidermidis ATCC 12228.
The test system of assay [31] is Salmonella enterica subsp. enterica serovar Pullorum ATCC 7913.
Assay [32] deals with Escherichia coli 1005.
In assay [33] the test system is Staphylococcus aureus ATCC 25923.
The subject of assay [34] is Candida tropicalis CGMCC 2.1975.
Assay [35] relates to Staphylococcus aureus ATCC 29213.
The subject of assay [36] is Candida parapsilosis CGMCC 2.3989.

As to `CC(C)[C@H](NC(=O)[C@H](C)NC(=O)[C@@H](NC(=O)CNC(=O)[C@H](C)N)[C@@H](C)O)C(=O)N[C@@H](Cc1ccccc1)C(=O)N[C@@H](CCCCN)C(=O)O` [AGTAVFK], the minimum inhibitory concentration (MIC) in assay [1] is not below 107 µM; in [2], not below 963 µM; in assay [3] it was not below 107 µM; in [4] it was not below 321 µM.

`CC(C)C[C@H](NC(=O)[C@H](Cc1ccccc1)NC(=O)[C@H](CCCN=C(N)N)NC(=O)[C@H](CCCN=C(N)N)NC(=O)[C@H](C)NC(=O)[C@H](Cc1c[nH]c2ccccc12)NC(=O)[C@H](Cc1c[nH]c2ccccc12)NC(=O)[C@H](C)NC(=O)[C@H](CCCN=C(N)N)NC(=O)[C@H](Cc1ccccc1)NC(=O)[C@H](Cc1ccccc1)NC(=O)[C@H](CCCCN)NC(=O)[C@@H](N)CCCCN)C(=O)N[C@@H](CCCCN)C(N)=O` [KKFFRAWWARRFLK]: the MIC in assay [5] and in assay [6] was 6.44 µM (≈ 12.5 µg/mL) throughout.

As to `CC[C@H](C)[C@H](NC(=O)[C@H](CCCCN)NC(=O)[C@H](CCC(N)=O)NC(=O)[C@H](Cc1c[nH]c2ccccc12)NC(=O)[C@@H](NC(=O)[C@H](CCCCN)NC(=O)[C@@H](N)CCCCN)[C@@H](C)CC)C(=O)N[C@@H](CCCCN)C(=O)N[C@@H](CC(N)=O)C(=O)N[C@@H](Cc1ccccc1)C(=O)N[C@@H](Cc1ccccc1)C(=O)N[C@@H](CCC(N)=O)C(=O)N[C@@H](CCCCN)C(=O)N[C@@H](CC(C)C)C(=O)O` [KKIWQKIKNFFQKL], the MIC in [7] stood at 50 µM (≈ 92.5 µg/mL); in assay [8], 29 µM (≈ 53.6 µg/mL); in assay [9] it was 6.25 µM (≈ 11.6 µg/mL); in assay [10], 6.25 µM (≈ 11.6 µg/mL).

With `CC[C@H](C)[C@H](NC(=O)[C@H](CCCCN)NC(=O)[C@H](CCC(N)=O)NC(=O)[C@H](Cc1c[nH]c2ccccc12)NC(=O)[C@@H](NC(=O)[C@H](CCCCN)NC(=O)[C@@H](N)CCCCN)[C@@H](C)CC)C(=O)N[C@@H](CCCCN)C(=O)N[C@@H](CCCN=C(N)N)C(=O)N[C@@H](Cc1ccccc1)C(=O)N[C@@H](Cc1ccccc1)C(=O)N[C@@H](CCC(N)=O)C(=O)N[C@@H](CCCCN)C(=O)N[C@@H](CC(C)C)C(=O)O` [KKIWQKIKRFFQKL], the MIC is 50 µM (≈ 94.6 µg/mL) in assay [7], 7.5 µM (≈ 14.2 µg/mL) in assay [8], not below 50 µM in assay [9] and not below 50 µM in assay [10].

As to `CC[C@H](C)[C@@H]1NC(=O)CNC(=O)[C@H](CCCN=C(N)N)NC(=O)[C@H](Cc2ccc(O)cc2)NC(=O)[C@@H]2CSSC[C@H](NC1=O)C(=O)N[C@@H](Cc1ccc(O)cc1)C(=O)N[C@@H](CCCN=C(N)N)C(=O)N[C@@H](CCCN=C(N)N)C(=O)N[C@H](C(=O)N[C@@H](C)C(=O)O)CSSC[C@H](NC(=O)[C@H](Cc1c[nH]c3ccccc13)NC(=O)[C@@H](N)CCCCN)C(=O)N[C@@H](Cc1ccccc1)C(=O)N[C@@H](CCCN=C(N)N)C(=O)N[C@@H](C(C)C)C(=O)N2` [KWCFRVCYRGICYRRCA], the minimal inhibitory concentration (MIC) worked out at 0.0069 µM (≈ 0.015 µg/mL) in assay [11]; 1.83 µM (≈ 3.99 µg/mL) in assay [12]; 0.115 µM (≈ 0.25 µg/mL) in [13]; 0.229 µM (≈ 0.499 µg/mL) in [14]; 0.0069 µM (≈ 0.015 µg/mL) in assay [15]; 1.83 µM (≈ 3.99 µg/mL) in assay [16]. Also, the MIC in [17] came to 0.0572 µM (≈ 0.125 µg/mL); in [18] it was 0.115 µM (≈ 0.25 µg/mL); in assay [19] it was 0.0572 µM (≈ 0.125 µg/mL); in assay [20], 0.115 µM (≈ 0.25 µg/mL); in assay [21], 0.115 µM (≈ 0.25 µg/mL); in [22], 0.229 µM (≈ 0.499 µg/mL). This molecule also came in with an MIC in assay [23] of 0.0572 µM (≈ 0.125 µg/mL).

Turning to `CC[C@H](C)[C@@H]1NC(=O)CNC(=O)[C@H](CCCN=C(N)N)NC(=O)[C@H](Cc2ccc(O)cc2)NC(=O)[C@H](CO)NC(=O)[C@H](C(C)C)NC(=O)[C@H](CCCN=C(N)N)NC(=O)[C@H](Cc2ccccc2)NC(=O)[C@@H](NC(=O)[C@H](Cc2c[nH]c3ccccc23)NC(=O)[C@@H](N)CCCCN)CSSC[C@@H](C(=O)N[C@@H](CCCN=C(N)N)C(=O)O)NC(=O)[C@H](CCCN=C(N)N)NC(=O)[C@H](CCCN=C(N)N)NC(=O)[C@H](Cc2ccc(O)cc2)NC(=O)[C@H](C)NC1=O` [KWCFRVSYRGIAYRRCR], the MIC in assay [11] came out at 0.45 µM (≈ 0.999 µg/mL); in assay [12], 0.901 µM (≈ 2 µg/mL); in [13], 0.225 µM (≈ 0.5 µg/mL); in [14], 7.21 µM (≈ 16 µg/mL); in assay [15] it was 0.0563 µM (≈ 0.125 µg/mL); in assay [16], 7.21 µM (≈ 16 µg/mL). Also, the MIC in [17] was 1.8 µM (≈ 4 µg/mL); in [18], 3.6 µM (≈ 7.99 µg/mL); in assay [19], 0.225 µM (≈ 0.5 µg/mL); in assay [20] it was 3.6 µM (≈ 7.99 µg/mL); in [21], 7.21 µM (≈ 16 µg/mL); in assay [22], 7.21 µM (≈ 16 µg/mL). This molecule came in with a minimal inhibitory concentration (MIC) in assay [23] of 0.45 µM (≈ 0.999 µg/mL).

Turning to `CC[C@H](C)[C@H](NC(=O)[C@@H]1CSSC[C@H](NC(=O)[C@H](CCCCN)NC(=O)CNC(=O)[C@H](CO)NC(=O)[C@@H](NC(=O)[C@@H](NC(=O)[C@H](CCCCN)NC(=O)[C@H](CO)NC(=O)[C@H](CCCCN)NC(=O)[C@H](CC(=O)O)NC(=O)[C@H](CO)NC(=O)[C@@H]2CCCN2C(=O)CNC(=O)[C@H](CO)NC(=O)[C@H](Cc2cnc[nH]2)NC(=O)[C@H](Cc2ccc(O)cc2)NC(=O)[C@@H](N)CCCCN)C(C)C)[C@@H](C)CC)C(=O)N[C@@H](CCC(=O)O)C(=O)N[C@@H](Cc2c[nH]c3ccccc23)C(=O)N[C@@H](CCC(N)=O)C(=O)NCC(=O)NCC(=O)N[C@@H](CCC(N)=O)C(=O)N[C@@H](CC(C)C)C(=O)N[C@@H](CC(N)=O)C(=O)N1)C(=O)N[C@@H](C)C(=O)N[C@H](C(=O)O)[C@@H](C)O` [KYHSGPSDKSKVISGKCEWQGGQLNCIAT], the MIC was not below 32 µM in assay [24], more than 32 µM in assay [25], not below 32 µM in assay [26] and not below 32 µM in [27].

For `NC(=O)[C@H](CCCN=C(N)N)NC(=O)[C@H](Cc1ccccc1)NC(=O)[C@H](CCCN=C(N)N)NC(=O)[C@H](Cc1ccccc1)NC(=O)[C@H](Cc1ccccc1)NC(=O)[C@H](Cc1ccccc1)NC(=O)[C@H](CCCN=C(N)N)NC(=O)[C@H](Cc1ccccc1)NC(=O)[C@@H](N)CCCN=C(N)N` [RFRFFFRFR], the minimum inhibitory concentration (MIC) is 4 µM (≈ 5.51 µg/mL) in [28]; 4 µM and > 2 µM in assay [11]; 4 µM (≈ 5.51 µg/mL) in assay [7]; 5.66 µM (≈ 7.79 µg/mL) in assay [29]; 4 µM (≈ 5.51 µg/mL) in assay [30]; 2 µM (≈ 2.76 µg/mL) in assay [31]. Moreover, the MIC was 4 µM (≈ 5.51 µg/mL) in [32]; 4 µM (≈ 5.51 µg/mL) in assay [33]; 2 µM (≈ 2.76 µg/mL) in [34]; 4 µM (≈ 5.51 µg/mL) in [35]; 16 µM (≈ 22 µg/mL) in assay [36]; 4 µM (≈ 5.51 µg/mL) in assay [22].
